Data as given in publication PMC7138307 (PLoS ONE, 2020).
Entries after “also recorded” stand apart in the source; their conditions may differ.

Tests used:
CK1d, CK1e = experiment: Ex vivo KiNativ ATP/ADP probe competition in mouse cortical brain lysates; format: binding; conditions: DVKPDNFLMGLGKK; Lys2; ATP probe
TAO1 = target: T1, TAO1 (Mus musculus, UniProt Q5F2E8); experiment: as above; format: binding; conditions: TNEVVAIKK; Lys1; ADP probe
T1 construct: from tissue; host or cells: mouse cortical brain lysate
T1 sequence (Q5F2E8 1-1001): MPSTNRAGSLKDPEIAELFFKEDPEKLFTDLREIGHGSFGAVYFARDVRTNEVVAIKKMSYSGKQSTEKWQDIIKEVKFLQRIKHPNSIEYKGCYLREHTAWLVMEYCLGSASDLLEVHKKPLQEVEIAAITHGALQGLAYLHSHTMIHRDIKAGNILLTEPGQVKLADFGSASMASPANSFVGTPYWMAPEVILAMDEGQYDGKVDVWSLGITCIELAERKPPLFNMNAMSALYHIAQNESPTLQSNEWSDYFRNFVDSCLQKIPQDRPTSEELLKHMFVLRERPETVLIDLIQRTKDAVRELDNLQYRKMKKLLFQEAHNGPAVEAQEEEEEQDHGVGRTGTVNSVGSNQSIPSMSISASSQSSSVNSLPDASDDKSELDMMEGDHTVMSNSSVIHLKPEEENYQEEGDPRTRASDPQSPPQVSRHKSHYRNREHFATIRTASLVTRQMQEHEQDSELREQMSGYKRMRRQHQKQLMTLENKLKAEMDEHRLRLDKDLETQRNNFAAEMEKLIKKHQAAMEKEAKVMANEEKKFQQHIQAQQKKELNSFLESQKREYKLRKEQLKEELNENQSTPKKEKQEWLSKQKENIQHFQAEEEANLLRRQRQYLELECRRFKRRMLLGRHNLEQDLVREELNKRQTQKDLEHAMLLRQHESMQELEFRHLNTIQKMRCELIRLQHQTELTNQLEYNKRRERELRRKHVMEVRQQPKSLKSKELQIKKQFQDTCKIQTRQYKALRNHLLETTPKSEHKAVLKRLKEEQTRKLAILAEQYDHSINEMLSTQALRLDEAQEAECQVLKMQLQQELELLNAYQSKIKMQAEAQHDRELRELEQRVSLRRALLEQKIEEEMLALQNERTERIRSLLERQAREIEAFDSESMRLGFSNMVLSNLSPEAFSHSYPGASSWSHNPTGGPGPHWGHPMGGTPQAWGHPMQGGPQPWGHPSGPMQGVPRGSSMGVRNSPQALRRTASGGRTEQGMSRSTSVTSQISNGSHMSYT

tau phosphorylation = experiment: Isoflurane induced hypothermia tau phosphorylation in C57Bl/6 mice (western blot of cortex); format: in vivo, mouse
From the text: Under basal conditions, tau phosphorylation is tightly regulated by opposing kinase and phosphatase activities. In mice, isoflurane induced hypothermia causes a dramatic increase in tau phosphorylation through the temperature dependent inhibition of PP2A [40]. In the current experiment, we used isoflurane induced hypothermia in C57Bl/6 mice to increase tau phosphorylation in order to test the effects of TTBK1 inhibition. By using wild-type mice we ensured that both the levels of tau and tau kinases were at endogenous levels. […] Based on our in vitro potency assays and pharmacokinetic parameters, the highest dose used (75 mg/kg) was projected to achieve an IC80 of TTBK1 inhibition for the one hour of hypothermia treatment (S3 Fig). […] This further confirms that S422, a site implicated in the early stages of neurofibrillary tangle formation in disease, is likely solely phosphorylated by TTBK1 in the brain.
Fig 6 Acute TTBK1 inhibition reduces tau phosphorylation at disease relevant sites in vivo. […] Phosphorylation signal was normalized to the level of total tau in each sample. Data is represented as the mean +/- SEM. For each phospho-epitope, treatment significance was determined first by one-way ANOVA between all groups; For each dose group, Tukey’s comparison was used to determine significance versus the Vehicle treated control. (B) Correlation within each brain sample between the level of tau phosphorylation at S422 and the measured concentration of free drug (R^2 = 0.4254; p = 0.0569).
Samples were lysed in Pierce RIPA lysis and extraction buffer (Thermo Fisher Scientific, Waltham, MA) supplemented with 1% Halt protease and phosphatase inhibitor cocktail (Thermo Fisher Scientific, Waltham, MA) and centrifuged at 14000 x g for 20 min at 4°C to clear the lysate. Protein concentrations were determined using the Direct Detect Infrared Spectrometer (EMD Millipore Corp., Burlington, MA) and 10μg of each sample was denatured in 6X SDS sample buffer (Boston Bioproducts, Ashland, MA) for 7 minutes at 90°C. Proteins were loaded into a Criterion 7.5% tris-glycine gel (Bio-Rad, Hercules, CA) and separated by SDS-PAGE at 120V for 120 minutes. The gel was transferred to an IBlot2 nitrocellulose membrane (Invitrogen, Carlsbad, CA), blocked with TBST blocking buffer (Li-cor Biosciences, Lincoln, NE) for 1 hour, and washed three times with TBST. The membrane was probed with primary antibodies (1:1000 dilution) in antibody dilution buffer (1:1 TBST blocking buffer and 1X TBST) overnight at 4°C. The following antibodies were used for immunoblotting: TTBK1 (Cat# PA5-20686, Invitrogen, Carlsbad, CA), Tau-5 (Cat# ab80579, Abcam, Cambridge, UK), phospho-Tau S422 (Cat# ab79415, Abcam, Cambridge, UK), S198 (Cat# ab79540, Abcam, Cambridge, UK), AT8 S202/T205 (Cat# MN1020, Invitrogen, Carlsbad, CA), S214 (Cat# ab170892, Abcam, Cambridge, UK), AT180 T231 (Cat# MN1040, Invitrogen, Carlsbad, CA), S262 (Cat# ab131354, Abcam, Cambridge, UK), S356 (Cat# ab75603, Abcam, Cambridge, UK), S396 (Cat# ab109390, Abcam, Cambridge, UK), GAPDH (Cat# 5174S, Cell Signaling Technology, Danvers, MA), and β-actin (Cat# 926–42212, Li-cor Biosciences, Lincoln, NE). The blot was then washed in triplicate with TBST and incubated for 1 hour with secondary antibody (1:10,000 dilution of IRDye 800 anti-mouse IgG and IRDye 680 anti-rabbit IgG, Li-cor Biosciences, Lincoln, NE) in antibody dilution buffer. After a final triplicate wash with TBST, the blot was visualized using the Odyssey CLx imaging system (Li-cor Biosciences, Lincoln, NE).
Seven-week-old male C576Bl/6 mice were used for all hypothermia experiments (Charles River Laboratories, Wilmington, MA). Hypothermia was induced by exposure to vaporized isoflurane in an anesthetic induction chamber attached to a V-1 Tabletop Anesthesia System (VetEquip, Inc., Livermore, CA). The mice remained in the chamber for 60 minutes with a constant isoflurane concentration of 2%. […]

`CCC(C)(O)C#Cc1cc2c(ccn2-c2ccnc(N)n2)cn1` (centres unmarked) [BIIB-TTBK1i] was tested, and the “Percent Inhibition at 1μM” value (CK1d, CK1e) was 55.5%, the “Percent Inhibition at 1μM” value (TAO1) was 75.9% and the “average reduction in tau phosphorylation at S422” value (tau phosphorylation; 25mg/kg I.P., one hour, p = 0.0213 vs Vehicle) was 60%. For the same compound, the “hypothermia induced tau phosphorylation at S422” value (tau phosphorylation; 50mg/kg I.P., one hour, p = 0.0005 vs Vehicle) was “completely restored to basal levels; also recorded: complete reversal”, the “tau phosphorylation at AT180 (Thr231)” value (tau phosphorylation; 75mg/kg I.P. p = 0.0002 vs Vehicle (50mg/kg p = 0.0005; 25mg/kg p = 0.0571)) was “significant decrease” and the “tau phosphorylation at S396” value (tau phosphorylation; 75mg/kg I.P. p = 0.0002 vs Vehicle (50mg/kg p = 0.011; 25mg/kg p = 0.8492)) was “significant decrease”. For the same compound, the “tau phosphorylation at AT8 (S202/T205)” value (tau phosphorylation; 75mg/kg I.P. p = 0.0066 vs Vehicle (50mg/kg p = 0.5391; 25mg/kg p>0.999)) was “significant decrease” and the “hypothermia induced tau phosphorylation at S422” value (tau phosphorylation; 75mg/kg I.P., one hour, p = 0.0007 vs Vehicle) was “completely restored to basal levels; also recorded: significant decrease”.
